Where two headings read alike, the source gives them in different places.
How the values were obtained:
[1] = system: patient with chronic progressive multiple sclerosis; format: in vivo
Excerpt: (§1) Currently, they are diagnosed with chronic-progressive multiple sclerosis. They are afflicted with visual impairments, chronic fatigue, difficulty with speech articulation, tremors in the right and left hands, decreased fine motor movement in the right greater than left hands and decreased motor strength in their lower extremities. They are without weight bearing and is confined to a wheelchair. When asked what their major barriers are as far as functional abilities on a day to day basis, they place fatigue at the top of their impairment list followed by speech difficulties and decreased fine motor movement of their hands. They experienced marked spasticity of their lower extremities with the progression of their neurological condition over the course of several years and eventually resorted to a baclofen pump which was implanted in 1997. […] They receive 85 micrograms of baclofen per day.

[2] = system: experimental autoimmune encephalomyelitis; test: EAE prevention therapy, daily functional score (Example 2); format: in vivo, female Lewis rats; details: score 0 to 4
Procedure: Thirty-two female Lewis rats are divided into four groups of eight each and on day one administered saline, citicoline (500 or 1000 mg/kg, i.p.), or dexamethasone (0.0375 mg/kg), respectively. Dexamethasone acts as a positive control through its ability to suppress immune function. […] Therapy is continued daily. […] Numerical values are averages of the functional scores in each treatment group from Days 14-21 of the study.

[3] = system: patients with chronic multiple sclerosis; test: Human study in chronic multiple sclerosis, EDSS and SNRS (Example 6); format: in vivo; details: 250, 500, or 1,000 mg each patient each day orally or intravenously for six months; eight patients
Procedure: A study of two sets of four patients each with chronic multiple sclerosis is undertaken. Each patient is first examined for normal hepatic, renal, and bone marrow functioning to establish baseline values. Each of the patients in each group is then treated either with citicoline dissolved in sterile preservative-free isotonic saline 10% or oral tablet or capsule. The citicoline is administered orally or intravenously at a dosage of 250, 500, or 1,000 mg each patient each day for six months. Patients are examined on a daily basis. During the treatment period, daily blood counts and twice weekly blood chemistries are performed on each patient. The neurologic function of each of these patients is measured using the expanded Krutzke disability status scale (EDSS), and the Scripps neurologic rating scale (SNRS).

[4] = system: patients with bulbar palsy caused by ALS; test: Human study in bulbar palsy caused by ALS (Example 7); format: in vivo; details: 500-1000 mg citicoline daily
Procedure: Six patients with bulbar palsy caused by ALS are treated with 500-1000 mg each citicoline by injection (monosodium salt dissolved in 10 ml sterile isotonic solution of sodium chloride) or by a solid tablet or soft gel capsule orally and administered daily.

[5] = system: patients suffering from ALS; test: Double-blind study against placebo in ALS, survival (Example 8); format: in vivo, human
Procedure: A double-blind study against placebo is performed as follows: 77 patients suffering from ALS are treated with 500 mg each citicoline by injection (monosodium salt dissolved in 10 ml sterile isotonic solution of sodium chloride) or be a solid tablet or soft gel capsule orally and administered daily, for a period of 12 to 18 months, and 78 patients receive a placebo. The results obtained are analyzed in terms of survival in the study, it being understood that “study drop-outs” (departures from the study) include individuals who actually die, and also individuals whose clinical state necessitates a tracheotomy or transfer to assisted ventilation.

[6] = system: patient with chronic progressive multiple sclerosis; test: Case, chronic progressive multiple sclerosis, citicoline response (Example 13); format: in vivo, human
Excerpt: as §1

patients = test: Observed tolerance of citicoline in patients; format: in vivo, human; details: doses about 250 mg to about 2000 mg for several weeks to several years
Excerpt: Dosages may be varied over time depending on the severity of symptoms, individual patient tolerance, route of administration and response to treatment. Treatment may be continued indefinitely if needed and if tolerated well.

[7] = patient history since around 1986
[8] = citicoline 500 mg/kg i.p. daily from day one
[9] = citicoline 1000 mg/kg i.p. daily from day one
[10] = dexamethasone 0.0375 mg/kg daily from day one

Nc1nc(Cl)nc2c1ncn2[C@H]1C[C@H](O)[C@@H](CO)O1 [Cladribine]
effect of earlier treatment on multiple sclerosis [1, 7]: no effect

ACTH: drug often used to treat ALS or MS (SYSMEHFRWGKPVGKKRRPVKVYPNGAEDESAEAFPLEF; Corticotropin; UniProt P01189 138-176, looked up)
effect of earlier treatment on multiple sclerosis [1, 7]: worked initially

Cn1cnc([N+](=O)[O-])c1Sc1ncnc2[nH]cnc12 [Imuran]
effect of earlier treatment on multiple sclerosis ([1]; in vivo): no effect

C[N+](C)(C)CCOP(=O)(O)OP(=O)([O-])OC[C@H]1O[C@@H](n2ccc(N)nc2=O)[C@H](O)[C@@H]1O [citicoline, cytidine-5′-diphosphocholine]
Mean Functional Score Day 14 [2, 8]: 0.43 | Mean Functional Score Day 15 [2, 8]: 0.41 | Mean Functional Score Day 16 [2, 8]: 0.37 | Mean Functional Score Day 17 [2, 8]: 0.38 | Mean Functional Score Day 18 [2, 8]: 0.28 | Mean Functional Score Day 19 [2, 8]: 0.59 | Mean Functional Score Day 20 [2, 8]: 0.68 | Mean Functional Score Day 21 [2, 8]: 0.87 | Mean Functional Score Day 14 [2, 9]: 0.56 | Mean Functional Score Day 15 [2, 9]: 0.78 | Mean Functional Score Day 16 [2, 9]: 0.84 | Mean Functional Score Day 17 [2, 9]: 0.69 | Mean Functional Score Day 18 [2, 9]: 0.62 | Mean Functional Score Day 19 [2, 9]: 0.91 | Mean Functional Score Day 20 [2, 9]: 0.75 | Mean Functional Score Day 21 [2, 9]: 0.84 | toxic side effects [3]: no evidence of any significant toxic side effects | side effects of this treatment [4]: insignificant | patients who die (study drop-outs) ([5]; 500 mg citicoline daily for 12 to 18 months, 77 patients, placebo 50%): 20% | patients who die (study drop-outs) ([5]; subjects with early bulbar involvement or the bulbar form of ALS, 500 mg citicoline daily, placebo 65%): 30% | adverse side effects ([6]; 500 mg per day every morning, first two weeks): no adverse side effects | balance and fatigue on the first two days of increased dosage ([6]; 1000 mg per day (500 mg a.m., 500 mg p.m.)): balance had been poor and that their fatigue had increased | fatigue after dosage increase ([6]; 2000 mg per day (1000 mg a.m., 1000 mg p.m.)): worsening of fatigue in the morning hours for approximately two days | patient tolerance (patients): tolerate citicoline well

O=P1(N(CCCl)CCCl)NCCCO1 (stereo not drawn) [Cytoxan]
course of earlier treatment, tolerability [1, 7]: discontinued due to adverse events

C[C@]12C=CC(=O)C=C1CC[C@@H]1[C@@H]2C(=O)C[C@@]2(C)[C@H]1CC[C@]2(O)C(=O)CO [Prednisone]
effect of earlier treatment on multiple sclerosis [1, 7]: worked initially

C[C@@H]1C[C@H]2[C@@H]3CCC4=CC(=O)C=C[C@]4(C)[C@@]3(F)[C@@H](O)C[C@]2(C)[C@@]1(O)C(=O)CO [Dexamethasone]
Mean Functional Score Day 14 [2, 10]: 0.14 | Mean Functional Score Day 15 [2, 10]: 0.42 | Mean Functional Score Day 16 [2, 10]: 0.0 | Mean Functional Score Day 17 [2, 10]: 0.14 | Mean Functional Score Day 18 [2, 10]: 0.28 | Mean Functional Score Day 19 [2, 10]: 0.64 | Mean Functional Score Day 20 [2, 10]: 0.57 | Mean Functional Score Day 21 [2, 10]: 0.64

NCC(CC(=O)O)c1ccc(Cl)cc1 (stereo not drawn) [baclofen]
ability to bear weight on lower extremities ([1]; baclofen pump, 85 micrograms per day): lessened their ability to bear weight on their lower extremities | spasticity in lower extremities ([1]; baclofen pump, continuous infusion into spinal fluid, 85 micrograms per day): reduced the spasticity considerably
